The structures appear in SMILES notation.

A short description of the data set: gradient 5% acetonitrile 3 min, to 50% in 2 min, to 85% in 15 min, held 3 min, 100 µL/min. The conditions noted are these: column: Zorbax Extend-C18 2.1 x 50 mm; eluents: water / acetonitrile, 0.1% formic acid. Put shortly:
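In both positive and negative ionization mode, a quadrupole time-of-flight mass spectrometer coupled to HPLC analyzed pure standards run in mixtures of ~100 molecules. The Zorbax Extend-C18 column (2.1 × 50 mm, 1.8 μm) was operated at 100 μL/min with water and acetonitrile, each containing 0.1% formic acid. The dead volume was 40 μL and the dwell volume 900 μL. Retention time came from adduct peaks that were computationally picked and individually inspected by hand.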
`O=C(Cn1nc2c(N3CCN(c4ccccc4)CC3)nccn2c1=O)Nc1ccccc1Cl` returned an RP-LC retention time of 928 s.
Under `Cn1cnc(S(=O)(=O)N2CCC(C(=O)NCc3ccc(Cl)cc3)CC2)c1` stands 702 s; under `COc1cc(NC(=O)Nc2cccc(-c3nccnc3N3CCCC3)c2)cc(OC)c1`, 596 s; under `Cc1cc(C(=O)N2CCC3(CC2)C(=O)N(C)c2ccccc23)n(C)n1`, 724 s.
The result for `CCN1C(=O)C2CC3(CCN(C(=O)c4cccs4)CC3)CN2C1=O` (stereo not given) reads 701 s; that for `O=C(C1CC1)N1CCc2sc(S(=O)(=O)N3CCN(c4ccccc4)CC3)cc2C1`, 987 s; that for `COc1cc(C2C(C(=O)N3CCCC3)CCC(=O)N2c2ccc3c(c2)OCO3)cc(OC)c1OC` (stereo not given), 665 s.
Compound `CC(C)Cn1cc(S(=O)(=O)Nc2cccc(F)c2)c2cccnc21` showed an RP-LC retention time of 912 s.
`O=S(=O)(Nc1cccn2c(C3CCC3)nnc12)c1cccc2nsnc12` yielded an RP-LC retention time of 719 s.
With `CCc1c(C(=O)O)nnn1-c1ccc(Cl)c(C)c1`, the RP-LC retention time was 809 s.
`COc1ccc(C(=O)Nc2c(-c3ccc(F)cc3)nc3ccccn23)cc1OC` came in with an RP-LC retention time of 625 s.
The result for `CCc1nn2c(CNC(=O)c3ccc(F)c(Cl)c3)c(C)nc2s1` reads 710 s.
For `COc1ccc(-c2cc(N3CCC(NC(=O)c4cccc(C#N)c4)C3)n[nH]2)cc1` (stereo not given), the RP-LC retention time turned out to be 692 s.
`CC(C)(C)OC(=O)COC(=O)c1cn(-c2cccc(F)c2)c(=O)c2ccccc12` yielded an RP-LC retention time of 1160 s.
As for `CCc1ccc(S(=O)(=O)N2CCC(n3c(-c4ccoc4)nc4cccnc43)C2)cc1` (stereo not given), the RP-LC retention time worked out at 871 s.
For the compound `COc1ccc(NC(=O)C2CCCN(c3nc4cccnc4s3)C2)cc1` (stereo not given), the RP-LC retention time is 797 s.
In turn, `Cc1cc(-c2nnc(C3CCC3)o2)c(C)n1CC(=O)NCc1cccc(C(F)(F)F)c1` displayed an RP-LC retention time of 937 s.
Take `Fc1ccc(-c2ccc(CNCc3cccs3)o2)cc1`: the RP-LC retention time turned out to be 706 s.
The result for `CN(C)S(=O)(=O)c1ccc(-c2nnc(C(=O)NCc3cccs3)o2)cc1` reads 812 s; that for `COc1ccc(CC(=O)N2CCC3(CC2)NC(=O)c2cc(C)ccc2N3C)cc1`, 769 s; that for `COc1ccc(-c2nnc(-c3ccccc3Cl)o2)cc1S(=O)(=O)N1CCCC1`, 969 s.
For `CC(C)(C)C(=O)Nc1cnc(-c2ccc(F)cc2)nc1`, the RP-LC retention time came to 960 s.
In turn, `Cc1cc(N2CCCCC2C)n2nc(-c3ccccc3)nc2n1` (stereo not given) came in with an RP-LC retention time of 966 s.
Under `CC(C)C(=O)Nc1ccc(C(=O)Nc2nc(-c3ccccc3)cs2)cc1` stands 949 s; under `O=C(N[C@H]1C[C@@H]2C[C@H]1CN2C(=O)c1ccc2c(c1)OCO2)c1cccs1`, 871 s.
As for `CN1CCN(CCNc2ccc(CO)c3sc4ccccc4c(=O)c23)CC1`, the RP-LC retention time was 616 s.
Under `COc1ccc(-c2nnc(COc3ccc(NC(=O)c4cncc(Br)c4)cc3)o2)cc1` stands 893 s; under `CO[C@H]1CN(C(C)C)[C@H]1C1CCN(C(=O)C2CCC2)CC1`, 574 s.
Regarding `O=C(Nc1ccc(F)cc1F)C1CCc2nc(N3CCOCC3)ncc2C1` (stereo not given), the RP-LC retention time came to 734 s.
The result for `O=C(Cn1c(N2CCCCC2)nc2ccccc2c1=O)N1CCN(c2ccccc2)CC1` reads 976 s.
Under `O=C1COc2ccccc2N1Cc1nc(-c2ccccc2Cl)no1` stands 995 s; under `Cc1ccc(N2C(=O)SC(N(CC(N)=O)c3ccc(C)cc3)C2=O)cc1` (stereo not given), 782 s.
The result for `CN1c2cc(Cl)ccc2C(=O)NC12CCN(C(=O)NCc1ccccc1)CC2` reads 795 s; that for `Cc1noc(-c2ccc(OC3CN(C(=O)CC4CCCC4)C3)cc2)n1`, 906 s; that for `O=C(Nc1cc(-c2ccccn2)no1)c1ccccc1Br`, 789 s.
Take `Cc1ccccc1NC(=O)c1csc(-c2cn(C)c3ncccc23)n1`: the RP-LC retention time worked out at 1020 s.
Consider `O=C(COc1ccccc1F)NCC1CCN(Cc2cccs2)CC1`, for which the RP-LC retention time was determined as 560 s.
Under `CC(C)(C)NC(=O)N1CCCC1c1noc(COc2ccc(F)cc2)n1` (stereo not given) stands 894 s; under `Cc1sc(NC(=O)c2ccco2)nc1-c1ccc2c(c1)NC(=O)C(C)O2` (stereo not given), 814 s.
As for `Cc1cc(C)cc(NC(=O)N2CCC(N3CCN(Cc4ccc(F)cc4)C(=O)C3=O)CC2)c1`, the RP-LC retention time was 788 s.
`COc1ccccc1-c1nnc(-c2ccc(Cl)c(S(=O)(=O)N3CCCCC3)c2)o1` showed an RP-LC retention time of 1100 s.
`CCOC(=O)CNC(=O)NC(C)C(=O)N1CCc2ccccc21` (stereo not given) yielded an RP-LC retention time of 687 s.
`O=C(c1nnc(-c2ccc(S(=O)(=O)N3CCCCC3)cc2)o1)N1CCc2ccccc2C1` showed an RP-LC retention time of 1080 s.
Regarding `CCOC(=O)N1CCN(c2nc(Nc3ccc(OC)cc3)c3nccnc3n2)CC1`, the RP-LC retention time came to 670 s.
The result for `CCc1ccc(CNC(=O)C2CCCN(c3ncnc4c3oc3ccccc34)C2)cc1` (stereo not given) reads 871 s; that for `CCc1ccccc1S(=O)(=O)Cc1ccc(C(=O)N2CCN(c3ccccn3)CC2)o1`, 637 s; that for `Cc1ccc(OCC(=O)Nc2cc3c(cc2N2CCOCC2)n(C)c(=O)c(=O)n3C)c(C)c1`, 787 s.
Compound `COc1cccc(-c2nc(-c3ccc(S(=O)(=O)N4CCCCC4)cc3)no2)c1` showed an RP-LC retention time of 1270 s.
Under `CC1CC=C(O)C12OCC(C)(C)CO2` (stereo not given) stands 736 s; under `Cc1nn(-c2ccccc2)c(C)c1S(=O)(=O)N1CCC(C(=O)Nc2ccc(C(C)C)cc2)CC1`, 1100 s.
The result for `COc1ccc(OC)c(NC(=O)Nc2c(-c3ccccc3)nc3ccccn23)c1` reads 668 s.
The result for `CCn1cc(-c2nc(C)c(C(=O)Nc3cc(OC)ccc3OC)s2)c2cccnc21` reads 1130 s; that for `COCCNC(=O)c1cc2c(s1)N(C)CCC2`, 703 s.
`Fc1ccccc1CN1CCc2nc(N3CCOCC3)ncc2C1` returned an RP-LC retention time of 590 s.
The compound `CCc1ccc(NC(=O)CCS(=O)(=O)c2ccc3c(c2)CCCN3C(C)=O)cc1` registered an RP-LC retention time of 808 s.
As to `O=C(NC1CC1)c1ccc(OCC2CCN(C(=O)c3ccc(F)cc3F)CC2)cc1`, the RP-LC retention time worked out at 804 s.
Under `O=S(=O)(c1cc(-c2nnc(C3CC3)o2)co1)N1CCN(c2ccccc2F)CC1` stands 986 s.
Compound `Cc1ccc(NS(=O)(=O)c2cc(-c3[nH]ncc3C(=O)N3CCCCC3)oc2C)c(C)c1` displayed an RP-LC retention time of 791 s.
Turning to `Cc1noc(CNC(=O)C2CCN(C(=O)CSc3ccc(F)cc3)CC2)n1`, the RP-LC retention time was found to be 645 s.
The compound `Cc1cccc(S(=O)(=O)N(C)CC2CCOC2)c1` (stereo not given) showed an RP-LC retention time of 811 s.
The result for `CCOC(=O)c1ccc(NC(=O)Cn2c(=O)nc(N3CCC(C)CC3)c3ccccc32)cc1` reads 872 s; that for `O=C(c1ccc2c(c1)OCO2)N1CCN(c2cc(-c3ccc(Cl)cc3)[nH]n2)CC1`, 836 s; that for `Cc1cc(C2CCCN2C(=O)Nc2ccc(C)c(Cl)c2)no1` (stereo not given), 906 s.
The result for `O=C(C1CCN(S(=O)(=O)N2CCOCC2)CC1)N1CCN(Cc2noc3ccccc23)CC1` reads 645 s; that for `Cc1ccc(NC(=O)N2CCC3(CC2)NC(=O)c2ccccc2O3)cc1`, 762 s.
Consider `Cc1ccc(-c2noc(-c3ccc(NCCCN4CCOCC4)nc3)n2)cc1`, for which the RP-LC retention time was 695 s.
Regarding `O=C(NCC1(CO)CC1)NC1CCCCC1`, the RP-LC retention time came to 621 s.
`CC1=C(c2ccc(C(C)C)cc2)S(=O)(=O)N=C1N1CCC(C(=O)N2CCOCC2)CC1` yielded an RP-LC retention time of 779 s.
`Cc1ccc(C)c(N2CCN(C(=O)c3ccc(Cn4cncn4)cc3)CC2)c1` returned an RP-LC retention time of 860 s.
Under `CCc1cc(C(=O)NC2CC2)nc2cc(-c3ccsc3)nn12` stands 1010 s.
The result for `CCOc1cccc(CNc2cc(-n3nc(C)cc3C)ncn2)c1` reads 987 s; that for `CN(C)CCn1cc(C(=O)NCc2cccs2)ccc1=O`, 578 s.
Under `CCN1CCN(c2ccc(NC(=O)c3ccc(C)c(N4CCCC4=O)c3)cn2)C1=O` stands 600 s.
With `Cc1cc(C)cc(NC(=O)c2cn(-c3cc(N4CCCC4)ncn3)cn2)c1`, the RP-LC retention time turned out to be 972 s.
`CC(C)NC(=O)c1ccc(OCC2CCCN(C(=O)C(C)C)C2)cc1` (stereo not given) registered an RP-LC retention time of 787 s.
The compound `O=C(CN1C(=O)CC(c2ccccc2)S(=O)(=O)c2ccccc21)NCCc1ccccc1` (stereo not given) returned an RP-LC retention time of 855 s.
On to `CCN1CCN(CC(=O)Nc2ccc(C(C)=O)cc2)C(=O)C1=O`, for which the RP-LC retention time came out at 580 s.
Under `Cc1ccc(CN2CC(Oc3ccc(-c4noc(-c5ccncc5)n4)cc3)C2)o1` stands 681 s; under `Cc1ccccc1NC(=O)Cn1c(C)nc2c(sc3nc(-c4ccccc4)ccc32)c1=O`, 1060 s.
Turning to `O=C(Nc1ccc2c(c1)OCCO2)C1CCCN(S(=O)(=O)Cc2ccc(Cl)cc2)C1` (stereo not given), the RP-LC retention time was determined as 968 s.

These data come from the METLIN SMRT retention time set (Domingo-Almenara et al. 2019).
